What all share (assay type): cell-based, human
The test system of series [1] is hPNPase^OLD-35 and Myc proteins. The series can be described thus: Western blot after IFN-β treatment or siRNA.
Series [2] has as its system HO-1 cells. The series can be described thus: MTT cell viability assay. The note with it: HO-1 clones, more pronounced after 6 days. Here is the method:
(§1) Transfection of siRNA: Cells (5×10^5) were plated in a 6 cm dish and the next day were transfected with 25 nM of either control siRNA or c-myc siRNA (Ambion; catalogue# 4250) using Lipofectamine 2000 (Invitrogen) according to the Manufacturer's protocol. After 24 h, the cells were trypsinized and seeded into 96-well plates for cell viability assays and 6-cm dishes for colony formation assays and cell cycle analyses as described above.
For orientation: Formazan colour is commonly taken as a measure of viable cells.

For series [3], the system named is HO-1 cells. The series can be described thus: Colony formation assay with IFN-β. The note with it: HO-1 clones. Here is the method:
as §1

In series [4] the test system is HO-1, WM-35, MeWo and FM-516 cells. The series can be described thus: Cell cycle analysis by flow cytometry after IFN-β. The note with it: HO-1 clones, IFN-β 1000 U/ml. Here is the method:
Cell Cycle Analysis: Cells were harvested, washed in PBS and fixed overnight at −20° C. in 70% ethanol. The cells were treated with RNase A (1 mg/ml) at 37° C. for 30 min and then with propidium iodide (50 μg/ml). Cell cycle was analyzed using a FACScan flow cytometer and data were analyzed using CellQuest software (Becton Dickinson, San Jose, Calif.).
Background: A flow cytometer gives signals particle by particle.

For series [5], the system named is c-myc mRNA. The series can be described thus: Half-life of c-myc mRNA (Actinomycin D, Northern blot). The note with it: HO-1 clones expressing the siRNA, compared to control untreated cells. How it is done:
RNA Isolation and Northern Blot Analysis: Total RNA was extracted from cells using Qiagen RNeasy mini kit (Qiagen) according to the manufacturer's protocol and Northern blotting was performed as described (102). The cDNA probes used were a 400-bp fragment from human c-myc, a 500-bp fragment from hPNPase^old-35 and full-length human GAPDH.

As to “hPNPase^old-35-siRNA: lentivirus-expressed siRNA for hPNPase^old-35, sequence 5′ AACAAAACCTTCCCCTTCCCA 3′ (SEQ ID NO:40)”, in series [1] (HO-1 clone 1 expressing the siRNA, IFN-β 1000 U/ml, 2 days), the “inhibition in hPNPase^OLD-35 induction by IFN-β” value is given as roughly 100%. Moreover, the “ability to downregulate Myc in response to IFN-β” value in series [1] (HO-1 clones 1, 4 and 5 expressing the siRNA) is “lost this ability”. For the same substance, the “response of siRNA expressing clones to IFN-β (MTT)” value in series [2] is listed as “significant resistance”. Further, the “response of siRNA expressing clones to IFN-β-induced inhibition of colony formation” value in series [3] is given as “significant resistance”. For the same substance, the “response of siRNA expressing clones to growth inhibition by IFN-β (cell cycle)” value in series [4] is “remarkable resistance”. For the same substance, the “half-life of c-myc mRNA after IFN-β” value in series [5] was “remained unchanged”.

(Values after patent US20080057055A1, “OLD-35 as an inflammatory agent” (priority 2004, published 2008).)
